Drawing on publication PMC9395968, “Pristimerin, a triterpene that inhibits monoacylglycerol lipase activity, prevents the development of paclitaxel-induced allodynia in mice” (Frontiers in Pharmacology, 2022), this text covers IC50 for one molecule.

Experiment [1] concerns the target T1, human recombinant monoacylglycerol lipase (MAGL) (Homo sapiens, UniProt Q99685).
T1 construct: gene MGLL
T1 sequence (Q99685 1-303): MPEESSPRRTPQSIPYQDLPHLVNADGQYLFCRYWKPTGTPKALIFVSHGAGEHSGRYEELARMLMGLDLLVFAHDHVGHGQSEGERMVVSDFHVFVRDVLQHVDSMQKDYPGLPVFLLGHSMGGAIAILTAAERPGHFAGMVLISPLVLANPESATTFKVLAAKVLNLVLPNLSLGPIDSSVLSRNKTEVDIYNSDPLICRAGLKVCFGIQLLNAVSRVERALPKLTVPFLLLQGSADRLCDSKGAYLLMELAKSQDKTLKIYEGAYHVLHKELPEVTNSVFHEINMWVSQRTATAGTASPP
Kind of experiment: colorimetric MAGL inhibitor screening kit (4-nitrophenyl acetate hydrolysis, […] nm). In kind it is biochemical.

Experiment [2] addresses T2, mouse monoacylglycerol lipase (MAGL) (Mus musculus, UniProt O35678).
T2 construct: gene Mgll
T2 sequence (O35678 1-303): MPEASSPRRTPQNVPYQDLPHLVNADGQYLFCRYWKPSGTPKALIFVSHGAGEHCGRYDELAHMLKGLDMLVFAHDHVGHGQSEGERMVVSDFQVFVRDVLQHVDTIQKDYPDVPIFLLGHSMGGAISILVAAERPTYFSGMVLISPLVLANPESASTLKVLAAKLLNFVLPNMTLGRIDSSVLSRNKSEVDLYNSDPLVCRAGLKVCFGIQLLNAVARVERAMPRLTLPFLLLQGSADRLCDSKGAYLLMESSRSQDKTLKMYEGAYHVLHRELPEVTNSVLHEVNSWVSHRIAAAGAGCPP
The experiment in a line: fluorometric MAGL activity assay in paw skin supernatant (brain IC50 […]). It is filed as biochemical.

Usually IC50 stands for the concentration that inhibits the measured activity by half.

With `COC(=O)[C@]1(C)CC[C@]2(C)CC[C@]3(C)C4=CC=C5C(=CC(=O)C(O)=C5C)[C@]4(C)CC[C@@]3(C)[C@@H]2C1` [pristimerin], the IC50 was 130 nM in experiment [1] and 596 nM in experiment [2].
